Calls of active or inactive are those of the source. The calls are words filed in the database; no cut-off is given here.
Tests used:
CHO-K1 [1] = test: Inhibition of [14C]cholesterol ester biosynthesis in CHOK1 cells using [14C]Oleic acid as substrate after 6 hrs by TLC method; type: functional, cell-based; conditions: Cricetulus griseus, CHO-K1, 6 h
[2] = target: T1, Sterol O-acyltransferase 2 (Homo sapiens, UniProt O75908); test: Inhibition of human SOAT2-mediated [14C]Cholesterol ester synthesis in CHO cells after 6 hrs in presence of [14C]Oleic acid by TLC analysis; type: cell-based
T1 sequence (O75908 whole entry): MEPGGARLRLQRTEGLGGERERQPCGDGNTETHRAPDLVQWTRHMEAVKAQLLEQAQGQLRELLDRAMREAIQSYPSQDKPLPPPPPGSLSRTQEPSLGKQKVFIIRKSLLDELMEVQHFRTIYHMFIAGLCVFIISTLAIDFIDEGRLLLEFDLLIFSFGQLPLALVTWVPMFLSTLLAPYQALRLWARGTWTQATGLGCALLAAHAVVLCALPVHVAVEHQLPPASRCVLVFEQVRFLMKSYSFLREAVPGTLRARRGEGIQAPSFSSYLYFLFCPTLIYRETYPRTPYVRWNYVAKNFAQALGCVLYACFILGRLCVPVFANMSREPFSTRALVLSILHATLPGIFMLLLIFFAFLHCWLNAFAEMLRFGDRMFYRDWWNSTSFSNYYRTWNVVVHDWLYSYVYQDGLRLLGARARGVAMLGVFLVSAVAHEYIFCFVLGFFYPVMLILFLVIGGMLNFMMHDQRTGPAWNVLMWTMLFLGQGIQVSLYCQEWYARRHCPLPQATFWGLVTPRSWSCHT

CHO-K1 [3] = test: Effect on lipid droplet accumulation in CHOK1 cells at >100 uM preincubated with oleic acid for 12 hrs followed by replacement of fresh medium containing compounds and measured after 6 hrs by oil red O staining based confocal laser scanning microscopy; type: functional, cell-based; conditions: Cricetulus griseus
[4] = target: T1, Sterol O-acyltransferase 2; test: Inhibition of human SOAT2-mediated [14C]Cholesterol ester biosynthesis in CHO microsomal fraction after 5 mins in presence of [1-14C]oleoyl-CoA by TLC analysis
[5] = target: T2, Sterol O-acyltransferase 1 (Homo sapiens, UniProt P35610); test: Inhibition of human SOAT1 mediated [14C]Cholesterol ester synthesis in CHO cells after 6 hrs in presence of [14C]Oleic acid by TLC analysis; type: cell-based
T2 sequence (P35610 whole entry): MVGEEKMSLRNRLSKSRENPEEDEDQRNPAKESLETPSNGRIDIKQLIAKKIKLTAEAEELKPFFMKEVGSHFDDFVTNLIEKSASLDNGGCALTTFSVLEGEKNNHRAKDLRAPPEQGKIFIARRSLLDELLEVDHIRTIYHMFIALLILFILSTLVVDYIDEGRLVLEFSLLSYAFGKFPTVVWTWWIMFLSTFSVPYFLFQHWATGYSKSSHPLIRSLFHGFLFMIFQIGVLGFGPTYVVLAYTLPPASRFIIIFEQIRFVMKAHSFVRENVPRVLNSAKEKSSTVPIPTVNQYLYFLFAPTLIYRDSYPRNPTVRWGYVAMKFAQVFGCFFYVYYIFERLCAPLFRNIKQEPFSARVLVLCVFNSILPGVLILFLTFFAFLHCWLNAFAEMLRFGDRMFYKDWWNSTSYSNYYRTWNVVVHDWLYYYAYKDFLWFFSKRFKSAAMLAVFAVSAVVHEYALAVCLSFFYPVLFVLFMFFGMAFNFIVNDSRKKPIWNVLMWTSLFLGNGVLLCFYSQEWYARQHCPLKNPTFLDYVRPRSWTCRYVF

CHO-K1 [6] = test: Inhibition of [14C]triglyceride biosynthesis in CHOK1 cells using [14C]Oleic acid as substrate after 6 hrs by TLC method; type: functional, cell-based; conditions: Cricetulus griseus, CHO-K1, 6 h
CHO-K1 [7] = test: Cytotoxicity against CHOK1 cells assessed as reduction in cell viability; type: cell-based; conditions: Cricetulus griseus
[8] = (§1) Inhibition of SOAT in CHOK1 microsomes; set-up: species or system Cricetulus griseus; conditions: cho-k1
CHO-K1 [9] = test: as §1; conditions: Cricetulus griseus
[10] = target: T2, Sterol O-acyltransferase 1; test: Inhibition of human SOAT1-mediated [14C]Cholesterol ester biosynthesis in CHO microsomal fraction after 5 mins in presence of [1-14C]oleoyl-CoA by TLC analysis

Row | IC50 [2] [µM] | IC50 [4] [µM] | IC50 [5] [µM] | IC50 [8] [µM] | inhibition (CHO-K1 [9]) | IC50 [10] [µM] | SMILES | IC50 (CHO-K1 [1]) [µM] | Activity (CHO-K1 [3]) | IC50 (CHO-K1 [6]) [µM] | IC50 (CHO-K1 [7]) [µM]
1 | 36.2 | 11.5 | 32.8 | 29 | Dose-dependent effect | 4.7 | CC(=O)OCCC(/C=C/C=C/C#CC#C/C=C/CO)OC(=O)C=C(C)C (configuration not stated) | 35.4 | inactive | > 136 | 111
2 | 187 | 101 |  | 211 |  |  | C=C1CCC[C@]2(C)C[C@]3(O)OC(=O)C(C)=C3C[C@@H]12 [ATRACTYLENOLIDE III] | 73.5 | inactive | > 195 | > 195
